Laboratory results published in US20030215462A1, “Use of UGT inhibitors to increase bioavailability” (priority 2001, published 2003).

Assays:
[1] = test system: T1, UGT enzymes of human liver microsomes; test: Inhibition of 7-HFC glucuronidation in human liver microsomes; type: biochemical; conditions: for % of control metabolism (SD, n = 3), 7-HFC glucuronidation: 7-HFC 50 μM, human liver microsomes 100 μg/ml, 15 min
T1 construct: percentage of control metabolism, 7-HFC glucuronidation; percentage of control metabolism, 7-HFC glucuronidation

[2] = test system: T1, UGT enzymes of human liver microsomes; test: Kinetic and Ki studies of inhibitors of 7-HFC glucuronidation in human liver microsomes; type: biochemical; conditions: 7-HFC 20-500 μM
[3] = test system: UGT enzymes of human liver microsomes; test: Inhibition of raloxifene glucuronidation (G1, G2) in human liver microsomes; type: biochemical; conditions: for % of control metabolism (SD, n = 3), raloxifene glucuronide G1 / % of control metabolism (SD, n = 3), raloxifene glucuronide G2: human liver microsomes 250 μg/ml, 15 min
From the text: Compounds were eluted using a binary solvent gradient system. […] Solvent B was methanol. […] Detection was at 280 nm.

[4] = test system: UGT enzymes of pooled human jejunum microsomes; test: Inhibition of estradiol (E2) glucuronidation in pooled human jejunum microsomes; type: biochemical; conditions: jejunum HJ61; E2 50 μM; inhibitor 50 μM
From the text: (§1) Compounds were eluted using a binary solvent gradient system where solvent A was dilute phosphoric acid (pH 3) and solvent B was 80:20 acetonitrile-methanol. […] Detection was at 280 nm.

[5] = test system: T2, UGT enzymes of human liver microsomes; test: Inhibition of 2ME2 glucuronidation (MG1, MG2) in human liver microsomes; type: biochemical; conditions: liver 062101, 2ME2 50 μM
T2 construct: other: liver 062101
From the text: as §1

UGT1A1 = biological target: T3, UGT1A1 (Homo sapiens, UniProt P22309); test: Inhibition of raloxifene glucuronidation by recombinant UGT1A1 Supersomes; conditions: for Inhibition of raloxifene glucuronidation, G1, UGT1A1 / Inhibition of raloxifene glucuronidation, G2, UGT1A1: raloxifene 50 μM, 250 μg/ml Supersomes, 1 mM UDPGA, 15 min; for % of control metabolism, raloxifene G1 / % of control metabolism, raloxifene G2: UGT1A1
T3 sequence (P22309 26-533): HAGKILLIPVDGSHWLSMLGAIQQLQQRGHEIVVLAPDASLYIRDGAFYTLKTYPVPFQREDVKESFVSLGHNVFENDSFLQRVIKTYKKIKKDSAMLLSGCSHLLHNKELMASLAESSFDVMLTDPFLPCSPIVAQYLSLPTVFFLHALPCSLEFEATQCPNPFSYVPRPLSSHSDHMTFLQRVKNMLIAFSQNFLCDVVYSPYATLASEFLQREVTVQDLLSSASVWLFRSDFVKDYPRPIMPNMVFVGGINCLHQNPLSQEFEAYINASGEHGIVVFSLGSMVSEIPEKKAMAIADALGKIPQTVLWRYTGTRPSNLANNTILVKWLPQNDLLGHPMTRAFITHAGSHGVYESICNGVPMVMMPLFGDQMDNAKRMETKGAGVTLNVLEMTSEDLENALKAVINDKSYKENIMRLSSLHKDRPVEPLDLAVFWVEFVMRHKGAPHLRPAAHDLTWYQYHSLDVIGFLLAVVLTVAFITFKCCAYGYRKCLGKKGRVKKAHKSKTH
Protocol: (§2) Compounds were eluted using a binary solvent gradient system. Solvent A was water brought to pH 8 with NH4OH. Solvent B was methanol. Solvent flow rate was 1 ml/min and the column temperature was maintained at 50° C. Detection was at 280 nm. […] The system was then returned to the initial conditions and equilibrated for 3 min.

UGT1A3 = biological target: T4, UGT1A3 (Homo sapiens, UniProt P35503); test: Inhibition of raloxifene glucuronidation by recombinant UGT1A3 Supersomes; conditions: for Inhibition of raloxifene glucuronidation, G1, UGT1A3 / Inhibition of raloxifene glucuronidation, G2, UGT1A3: raloxifene 50 μM, 250 μg/ml Supersomes, 1 mM UDPGA, 15 min; for % of control metabolism, raloxifene G1 / % of control metabolism, raloxifene G2: UGT1A3
T4 sequence (P35503 29-534): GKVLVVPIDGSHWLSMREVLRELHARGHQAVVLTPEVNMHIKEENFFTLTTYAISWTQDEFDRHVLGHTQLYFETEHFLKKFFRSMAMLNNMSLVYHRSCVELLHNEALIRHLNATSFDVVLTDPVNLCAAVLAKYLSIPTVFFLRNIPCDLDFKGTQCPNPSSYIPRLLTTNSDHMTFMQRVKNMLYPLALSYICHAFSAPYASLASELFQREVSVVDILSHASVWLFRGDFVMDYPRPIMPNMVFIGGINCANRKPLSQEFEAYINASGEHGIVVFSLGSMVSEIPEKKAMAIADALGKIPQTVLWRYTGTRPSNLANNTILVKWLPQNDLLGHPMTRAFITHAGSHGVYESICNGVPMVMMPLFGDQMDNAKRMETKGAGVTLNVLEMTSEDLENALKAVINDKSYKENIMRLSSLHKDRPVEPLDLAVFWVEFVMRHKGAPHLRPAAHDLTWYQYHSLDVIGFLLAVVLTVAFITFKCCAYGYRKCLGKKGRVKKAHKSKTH
Protocol: as §2

[6] = inhibitor 10 μM, raloxifene 50 μM
[7] = inhibitor 25 μM, raloxifene 50 μM
[8] = inhibitor 50 μM, raloxifene 50 μM
[9] = inhibitor 100 μM, raloxifene 50 μM
[10] = inhibitor 500 μM, raloxifene 50 μM
[11] = liver lot 032101, inhibitor 50 μM
[12] = liver lot 062101, inhibitor 50 μM
[13] = liver lot 083000, inhibitor 50 μM
[14] = raloxifene 50 μM, inhibitor 10 μM
[15] = raloxifene 50 μM, inhibitor 25 μM
[16] = raloxifene 50 μM, inhibitor 50 μM
[17] = raloxifene 50 μM, inhibitor 100 μM
[18] = inhibitor column headed only "μM" (between 25 μM and 5 μM)

## O=C(O[C@@H]1Cc2c(O)cc(O)cc2O[C@@H]1c1cc(O)c(O)c(O)c1)c1cc(O)c(O)c(O)c1 [Epigallocatechin gallate]
[1]; inhibitor 100 μM
  percentage of control metabolism, 7-HFC glucuronidation: 67 (1) %
  % of control metabolism (SD, n = 3), 7-HFC glucuronidation: 67 (1) %
[1]; inhibitor 200 μM
  percentage of control metabolism, 7-HFC glucuronidation: 37 (2) %
  % of control metabolism (SD, n = 3), 7-HFC glucuronidation: 37 (2) %
[1]; inhibitor 500 μM
  percentage of control metabolism, 7-HFC glucuronidation: 5 (1) %
  % of control metabolism (SD, n = 3), 7-HFC glucuronidation: 5 (1) %
[2]
  Vmax of 7-HFC glucuronidation (fit of the experiment with this inhibitor): 54 ± 3 nmol/min/mg
[2]; read-out: Km of 7-HFC glucuronidation (fit of the experiment with this inhibitor)
  Km: 75 ± 7 µM
[3]; [6]
  % of control metabolism (SD, n = 3), raloxifene glucuronide G1: 85 (3) %
  % of control metabolism (SD, n = 3), raloxifene glucuronide G2: 82 (3) %
[3]; [7]
  % of control metabolism (SD, n = 3), raloxifene glucuronide G1: 56 (1) %
  % of control metabolism (SD, n = 3), raloxifene glucuronide G2: 63 (1) %
[3]; [8]
  % of control metabolism (SD, n = 3), raloxifene glucuronide G1: 46 (2) %
  % of control metabolism (SD, n = 3), raloxifene glucuronide G2: 50 (3) %
[3]; [9]
  % of control metabolism (SD, n = 3), raloxifene glucuronide G1: 22 (1) %
  % of control metabolism (SD, n = 3), raloxifene glucuronide G2: 27 (2) %
[3]; [10]
  % of control metabolism (SD, n = 3), raloxifene glucuronide G1: 0 (0) %
  % of control metabolism (SD, n = 3), raloxifene glucuronide G2: 0 (0) %
[3]; [11]
  % of control metabolism, raloxifene G1: 54 (2) %
  % of control metabolism, raloxifene G2: 50 (2) %
[3]; [12]
  % of control metabolism, raloxifene G1: 68 (2) %
  % of control metabolism, raloxifene G2: 41 (2) %
[3]; [13]
  % of control metabolism, raloxifene G1: 46 (2) %
  % of control metabolism, raloxifene G2: 50 (3) %
[3]; [14]
  % of control metabolism, raloxifene G1: 85 (3) %
  % of control metabolism, raloxifene G2: 82 (3) %
[3]; [15]
  % of control metabolism, raloxifene G1: 56 (1) %
  % of control metabolism, raloxifene G2: 63 (1) %
[3]; [16]
  % of control metabolism, raloxifene G1: 46 (2) %
  % of control metabolism, raloxifene G2: 50 (3) %
[3]; [17]
  % of control metabolism, raloxifene G1: 22 (1) %
  % of control metabolism, raloxifene G2: 27 (2) %
[4]
  residual metabolism (% of control), E2-3-β-D-glucuronide: 32 (0) %
  residual metabolism (% of control), E2-17-β-D-glucuronide: 41 (4) %
[5]; inhibitor 25 μM
  residual metabolism (% of control), 2ME2 MG1: 61 (1) %
  residual metabolism (% of control), 2ME2 MG2: 79 (0) %
[5]; inhibitor 50 μM
  residual metabolism (% of control), 2ME2 MG1: 48 (2) %
  residual metabolism (% of control), 2ME2 MG2: 71 (1) %
[5]; inhibitor 100 μM
  residual metabolism (% of control), 2ME2 MG1: 29 (1) %
  residual metabolism (% of control), 2ME2 MG2: 35 (1) %
UGT1A1; inhibitor 25 μM
  Inhibition of raloxifene glucuronidation, G1, UGT1A1: 44 (1)
  Inhibition of raloxifene glucuronidation, G2, UGT1A1: 45 (1)
  % of control metabolism, raloxifene G1: 44 (1) %
  % of control metabolism, raloxifene G2: 45 (1) %
UGT1A1; inhibitor 50 μM
  Inhibition of raloxifene glucuronidation, G1, UGT1A1: 21 (0)
  Inhibition of raloxifene glucuronidation, G2, UGT1A1: 25 (1)
  % of control metabolism, raloxifene G1: 21 (0) %
  % of control metabolism, raloxifene G2: 25 (1) %
UGT1A1; [18]
  Inhibition of raloxifene glucuronidation, G1, UGT1A1: 70 (1)
  Inhibition of raloxifene glucuronidation, G2, UGT1A1: 74 (2)
UGT1A3; inhibitor 25 μM
  Inhibition of raloxifene glucuronidation, G1, UGT1A3: 69 (2)
  Inhibition of raloxifene glucuronidation, G2, UGT1A3: 64 (3)
  % of control metabolism, raloxifene G1: 69 (2) %
  % of control metabolism, raloxifene G2: 64 (3) %
UGT1A3; inhibitor 50 μM
  Inhibition of raloxifene glucuronidation, G1, UGT1A3: 26 (2)
  Inhibition of raloxifene glucuronidation, G2, UGT1A3: 25 (1)
  % of control metabolism, raloxifene G1: 26 (2) %
  % of control metabolism, raloxifene G2: 25 (1) %
